From patent US20230339937A1, “CONDENSED RING COMPOUNDS THAT INHIBIT H-PGDS” (SATO PHARMACEUTICAL CO., LTD., priority 2020, published 2023)

Molecular target: T1, Recombinant human H-PGDS (Homo sapiens, UniProt O60760)
T1 construct: made in house; host or cells: E. coli
Experiment: H-PGDS inhibitory activity (prostaglandin D2 production from prostaglandin H2, measured by LC-MS/MS)
Type: biochemical
Details: recombinant human H-PGDS 1.0 nM expressed in E. coli; prostaglandin H2 25 μM; preincubated 15 minutes on ice, reacted on ice for 1 minute; concentration that inhibits prostaglandin D2 production by 50%
Outline: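 Recombinant human H-PGDS (E. coli-expressed, 1.0 nM final) preincubated with compound 15 min on ice in 20 mM Tris-HCl pH 8.0, 2 mM MgCl2, 2 mM GSH, 0.5 mg/mL γ-globulin. Reaction with 25 µM PGH2 run 1 min on ice, stopped with FeCl2/citric acid, PGD2 quantified by LC-MS/MS. Activity expressed as % of DMSO control after subtracting non-enzymatic PGD2.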

T1 sequence (O60760 whole entry): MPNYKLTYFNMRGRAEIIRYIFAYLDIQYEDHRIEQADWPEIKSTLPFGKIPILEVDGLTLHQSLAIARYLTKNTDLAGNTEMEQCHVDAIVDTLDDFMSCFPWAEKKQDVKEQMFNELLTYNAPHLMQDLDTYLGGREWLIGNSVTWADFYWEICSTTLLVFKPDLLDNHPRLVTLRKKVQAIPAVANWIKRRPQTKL

SMILES: O=C(NC1CCN(c2ncccn2)CC1)c1ccc(-c2nccc3[nH]ccc23)cc1 [Example 336, N-[1-(pyrimidin-2-yl)piperidin-4-yl]-4-(1H-pyrrolo[3,2-c]pyridin-4-yl)benzamide]
- IC50: 0.94 nM

SMILES: O=C(N[C@H]1CC[C@H](O)CC1)c1ccc(-c2nccc3[nH]ccc23)cc1 [Example 337, N-(trans-4-hydroxycyclohexyl)-4-(1H-pyrrolo[3,2-c]pyridin-4-yl)benzamide]
- IC50: 0.44 nM

SMILES: Cc1cc2[nH]ccc2c(-c2ccc(C(=O)N[C@H]3CC[C@H](C(C)(C)O)CC3)cc2)n1 [Example 338, N-[trans-4-(2-hydroxypropan-2-yl)cyclohexyl]-4-(6-methyl-1H-pyrrolo[3,2-c]pyridin-4-yl)benzamide]
- IC50: 2.4 nM

SMILES: Cc1cnc(-c2ccc(C(=O)N[C@H]3CC[C@H](C(C)(C)O)CC3)cc2)c2cc[nH]c12 [Example 339, N-[trans-4-(2-hydroxypropan-2-yl)cyclohexyl]-4-(7-methyl-1H-pyrrolo[3,2-c]pyridin-4-yl)benzamide]
- IC50: 1.4 nM

SMILES: CC(C)(O)[C@H]1CC[C@H](NC(=O)c2ccc(-c3nccc4[nH]ccc34)c(F)c2)CC1 [Example 340, 3-fluoro-N-[trans-4-(2-hydroxypropan-2-yl)cyclohexyl]-4-(1H-pyrrolo[3,2-c]pyridin-4-yl)benzamide]
- IC50: 1 nM

SMILES: O=C(N[C@H]1CC[C@H](O)CC1)c1ccc(-c2nccc3sccc23)cc1 [Example 341, N-(trans-4-hydroxycyclohexyl)-4-(thieno[3,2-c]pyridin-4-yl)benzamide]
- IC50: 2.4 nM

SMILES: Cc1cc2occc2c(-c2ccc(C(=O)N[C@H]3CC[C@H](OCC(C)(C)O)CC3)cc2)n1 [Example 342, N-[trans-4-(2-hydroxy-2-methylpropoxy)cyclohexyl]-4-(6-methylfuro[3,2-c]pyridin-4-yl)benzamide]
- IC50: 3 nM

SMILES: Cc1cc2occc2c(-c2ccc(C(=O)NC34CCC(O)(CC3)CC4)cc2)n1 [Example 343, N-(4-hydroxybicyclo[2.2.2]octan-1-yl)-4-(6-methylfuro[3,2-c]pyridin-4-yl)benzamide]
- IC50: 1.2 nM

SMILES: Cc1cc2occc2c(-c2ccc(C(=O)N[C@H]3CC[C@](C)(O)CC3)cc2)n1 [Example 344, N-(trans-4-hydroxy-4-methylcyclohexyl)-4-(6-methylfuro[3,2-c]pyridin-4-yl)benzamide]
- IC50: 1.7 nM

SMILES: O=C(NC12CCC(O)(CC1)CC2)c1ccc(-c2nccc3occc23)c(F)c1 [Example 345, 3-fluoro-4-(furo[3,2-c]pyridin-4-yl)-N-(4-hydroxybicyclo[2.2.2]octan-1-yl)benzamide]
- IC50: 1.2 nM

SMILES: C[C@]1(O)CC[C@H](NC(=O)c2ccc(-c3nccc4occc34)c(F)c2)CC1 [Example 346, 3-fluoro-4-(furo[3,2-c]pyridin-4-yl)-N-(trans-4-hydroxy-4-methylcyclohexyl)benzamide]
- IC50: 2 nM

SMILES: O=C(N[C@H]1CC[C@H](OCC2(O)CC2)CC1)c1ccc(-c2nccc3occc23)c(F)c1 [Example 347, 3-fluoro-4-(furo[3,2-c]pyridin-4-yl)-N-(trans-4-[(1-hydroxycyclopropyl)methoxy]cyclohexyl)benzamide]
- IC50: 2 nM

SMILES: CC(C)(O)CO[C@H]1CC[C@@H](NC(=O)c2ccc(-c3nccc4occc34)cc2)CC1 [Example 348, 4-(furo[3,2-c]pyridin-4-yl)-N-[cis-4-(2-hydroxy-2-methylpropoxy)cyclohexyl]benzamide]
- IC50: 1.7 nM

SMILES: O=C(NC12CCC(O)(CC1)C2)c1ccc(-c2nccc3occc23)cc1 [Example 349, 4-(furo[3,2-c]pyridin-4-yl)-N-(4-hydroxybicyclo[2.2.1]heptan-1 yl)benzamide]
- IC50: 1.5 nM

SMILES: CC(C)(O)[C@]1(O)CC[C@@H](NC(=O)c2ccc(-c3nccc4occc34)cc2)CC1 [Example 350, 4-(furo[3,2-c]pyridin-4-yl)-N-[cis-4-hydroxy-4-(2-hydroxypropan-2-yl)cyclohexyl]benzamide]
- IC50: 27 nM
